Series [1] in a line: Drug metabolism and pharmacokinetic evaluation in human liver microsome suspensions (percentage of compound remaining vs. incubation time). The format is in vitro ADME. The settings on record: human liver microsomes, NADPH, 37° C., after 4 hour, combo incubation with Osimertinib. The procedure:
In vitro drug metabolism and pharmacokinetic evaluation of D16-Osimertinib, and D19-Osimertinib against Osimertinib was conducted in Human Liver Microsome suspensions. The stability time course samples were prepared in house and extracted immediately by protein precipitation method using MeCN containing 400 ng/mL carbutomide as the internal standard (IS). The samples were analyzed on a Waters Acquity UPLC system coupled with a Bruker Q-tof mass spectrometer. The peak areas of respective extracted ion chromatograms were used for relative comparison. The sample preparation was performed according to the following procedure: […] The samples were put in 37° C. incubator for 10 minutes. […] The samples were vortexed and centrifuged at 13,000 g for approximately 5 minutes, then supernatants were taken and stored in −20° C. freezer. The sampling at a time point was triplicate. After the last samples were taken and they were placed in −20° C. at least 1 hour. All samples were put into a refrigerator at approximate 4° C. for 30 minutes. The samples were vortexed. Then approximately 100 μL of the supernatants were transferred to corresponding wells of a 96-well plate. The samples were diluted with 100 μL of 0.1% FA in water. The samples were vortexed and briefly centrifuged for LC-HRMS analysis. Sample chamber for LC-HRMS was kept at approximate 4° C. […]

Series [2] in a line: Reactivity as covalent inhibitor: half-life in buffered aqueous cysteine solution. Particulars: for half-life: PBS buffer with cysteine, 37° C.; for Improvement (%) of t½ in cysteine solution: deuterated compound vs. reference osimertinib. How it is done: The combo solutions were prepared by mixing individual evaluated compounds with reference osimertinib. Then, they were added to PBS buffer solution with cysteine at 37° C. The stability time course samples (in triplicate) were taken and added to prechilled quenching solution and then store at −70° C. freezer. The samples were analyzed on a Waters Acquity UPLC system coupled with a Bruker Q-tof mass spectrometer. The peak areas of respective extracted ion chromatograms were used for relative comparison.

In a further series the target is wild-type EGFR (Homo sapiens, UniProt P00533). Particulars: reportedly; cited from earlier work.
Series [3] has as its system A431 human squamous carcinoma cells (WT EGFR). Put plainly: Cell-based experiment on inhibition of WT-EGFR: cell proliferation of A431 cells. The source says:
(§1) A431 cells are a model human cell line which express abnormally high levels of the wide-type epidermal growth factor receptor (WT EGFR). WT EGFR inhibitors can affect cell prolification of the cells. Similarly the prolification of HepG2 hepatoma cells can be inhibited by WT EGFR inhibitors.

The test system of another series is HepG2 hepatoma cells. Kind of series: Cell-based experiment on inhibition of WT-EGFR: cell proliferation of HepG2 hepatoma cells.
Description: as §1

A short description of series [4]: Monkey pharmacokinetic study on deuteration of indole N-methyl group. The format is in vivo. Particulars: cynomolgus monkey, blood; male cynomolgus monkeys, single oral administration, 20 mg/Kg; read-out: AUC(0-t) of the parent. How it is done: A total of two (2) cynomolgus monkeys (male) were placed on study. Washout period lasted 7 days between two phases. Each test article was administered to an individual animal via a single oral administration for all groups. The dose levels were 20 mg/Kg. All animals were given detailed clinical examinations prior to administration, and no abnormality was observed. Cage side observation was conducted on all animals twice daily throughout the duration of administration. All animals were weighed before dosing on the day of administration. Blood samples were collected predose and postdose 0.25, 0.5, 1, 2, 3, 4, 6, 8, 12, 24, 36 and 48 h from the femoral vein at appropriate time points for analysis. These samples were analyzed by LC-MS/MS.

Where [5] appears, read: combo solution with osimertinib, read-out: Half-life in cysteine solution, Deuterated (t½ h) (converted).

Each structure is given as a SMILES string. Like-named read-outs stand apart in the source and are kept apart here.

Chain of wild-type EGFR (P00533 25-1210): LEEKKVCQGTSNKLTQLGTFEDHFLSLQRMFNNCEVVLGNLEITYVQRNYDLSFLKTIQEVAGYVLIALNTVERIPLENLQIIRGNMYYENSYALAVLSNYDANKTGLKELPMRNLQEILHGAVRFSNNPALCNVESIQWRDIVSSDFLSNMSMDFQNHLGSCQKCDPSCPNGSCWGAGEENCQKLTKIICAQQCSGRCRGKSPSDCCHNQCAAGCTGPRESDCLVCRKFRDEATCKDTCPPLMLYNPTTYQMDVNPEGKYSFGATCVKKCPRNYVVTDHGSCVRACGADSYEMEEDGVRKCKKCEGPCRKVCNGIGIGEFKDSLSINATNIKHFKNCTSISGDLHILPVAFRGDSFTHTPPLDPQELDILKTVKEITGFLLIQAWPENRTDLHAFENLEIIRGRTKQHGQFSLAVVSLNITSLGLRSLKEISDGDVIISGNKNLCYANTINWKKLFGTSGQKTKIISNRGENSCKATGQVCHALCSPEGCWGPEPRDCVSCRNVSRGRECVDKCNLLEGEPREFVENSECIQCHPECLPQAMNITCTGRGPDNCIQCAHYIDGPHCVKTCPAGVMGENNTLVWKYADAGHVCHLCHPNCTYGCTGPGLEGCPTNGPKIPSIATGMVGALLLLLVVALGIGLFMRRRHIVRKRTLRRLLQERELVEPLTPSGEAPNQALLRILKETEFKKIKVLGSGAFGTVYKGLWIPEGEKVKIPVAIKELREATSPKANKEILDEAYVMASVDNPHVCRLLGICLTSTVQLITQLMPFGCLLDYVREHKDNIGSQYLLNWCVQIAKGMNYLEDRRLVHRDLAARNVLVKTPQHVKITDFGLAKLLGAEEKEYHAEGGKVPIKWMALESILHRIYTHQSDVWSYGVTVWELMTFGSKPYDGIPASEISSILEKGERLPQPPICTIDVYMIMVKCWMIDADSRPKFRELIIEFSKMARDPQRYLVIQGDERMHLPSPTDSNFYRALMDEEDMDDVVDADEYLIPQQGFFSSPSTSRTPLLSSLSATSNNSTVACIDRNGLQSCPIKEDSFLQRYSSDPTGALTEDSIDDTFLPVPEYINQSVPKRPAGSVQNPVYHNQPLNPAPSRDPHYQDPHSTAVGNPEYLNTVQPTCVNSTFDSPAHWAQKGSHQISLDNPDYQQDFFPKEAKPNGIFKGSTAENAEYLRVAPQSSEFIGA

In the case of `[2H]C([2H])=C([2H])C(=O)Nc1cc(Nc2nccc(-c3cn(C([2H])([2H])[2H])c4ccccc34)n2)c(OC)cc1N(C([2H])([2H])[2H])C([2H])([2H])C([2H])([2H])N(C([2H])([2H])[2H])C([2H])([2H])[2H]` [D19-osimertinib], in series [1], the “difference between the concentrations of Osimertinib and the deuterated compound (percentage remaining)” value is recorded as ~28%. In addition, the half-life in series [2] (setting [5]) was 165 min. The “Improvement (%) of t½ in cysteine solution” value (from here on “Improvement (%) of t½”) in series [2] amounted to 43%.
On to `C=CC(=O)Nc1cc(Nc2nccc(-c3cn(C)c4ccccc34)n2)c(OC)cc1N(C)CCNC` [AZ7550], for which the “affinity towards wild-type EGFR” value on wild-type EGFR is recorded as “low affinity towards wild-type EGFR”.
`C=CC(=O)Nc1cc(Nc2nccc(-c3cn(C)c4ccccc34)n2)c(OC)cc1N(C)CCN(C)C` [Osimertinib, N-(2-{2-dimethylaminoethyl-methylamino}-4-methoxy-5-{[4-(1-methylindol-3-yl)pyrimidin-2-yl]amino}phenyl)prop-2-enamide]: the cell viability result (in series [3]; in the series on HepG2 hepatoma cells) was “did not affect the viability of cells” throughout. Besides, the half-life in series [2] (reference osimertinib in combo solution with the deuterated compound, read-out: Half-life in cysteine solution, Reference (t½ h) (converted)) was 325 min. Also, the area under the curve AUC(0-t) in series [4] is 654 ng·h/mL.
For the compound `[2H]C([2H])=C([2H])C(=O)Nc1cc(Nc2nccc(-c3cn(C)c4ccccc34)n2)c(OC)cc1N(C)CCN(C)C` [D3-osimertinib], in series [2] (setting [5]), the half-life is 243 min. In addition, the “Improvement (%) of t½” value in series [2] came to 33%.
In the case of `[2H]C([2H])=C([2H])C(=O)Nc1cc(Nc2nccc(-c3cn(C([2H])([2H])[2H])c4ccccc34)n2)c(OC)cc1N(C)CCN(C)C` [D6-osimertinib], the half-life in series [2] (setting [5]) is 274 min. Besides, the “Improvement (%) of t½” value in series [2] worked out at 23%.
Consider `[2H]C([2H])([2H])N(c1cc(OC)c(Nc2nccc(-c3cn(C([2H])([2H])[2H])c4ccccc34)n2)cc1NC(=O)C=C)C([2H])([2H])C([2H])([2H])N(C([2H])([2H])[2H])C([2H])([2H])[2H]` [D16-osimertinib], for which the “difference between the concentrations of Osimertinib and the deuterated compound (percentage remaining)” value in series [1] is recorded as ~26%.

By half-life is commonly meant how long it takes for the measured level to halve. By AUC(0-t) is commonly meant the area under the concentration-time curve up to a stated or last time point.

The values are drawn from patent publication US9968606B2, “Deuterated compounds for treating cancer and related diseases and conditions, and compositions and methods thereof” (NeuForm Pharmaceuticals, Inc., priority 2015, dated 2018).
